Results from PMC10434068, “Discriminating Susceptibility of Xanthine Oxidoreductase Family to Metals” (Microbiology Spectrum, 2023).

Columns and labels:
[1] = biological target: T1, pCOD (putative CO dehydrogenase; CoxSLM complex) (Rubrivivax gelatinosus, UniProt I0HW74+I0HW75); assay: in-gel NBT reductase activity, native PAGE of soluble fraction, no riboflavin; format: biochemical; conditions: NBT 2 mg/mL; 50 mM Tris-HCl pH 7.6; room temperature, dark; no electron donor added; reduction may run through superoxide
T1 construct: gene coxL; native complex in soluble fraction, native PAGE band between 130 and 250 kDa; predicted 126 kDa (CoxL 84, CoxM 27, CoxS 17 kDa); band absent in coxL mutant; with Carbon monoxide dehydrogenase large chain; Carbon monoxide dehydrogenase small chain
T1 sequence (I0HW74 1-781): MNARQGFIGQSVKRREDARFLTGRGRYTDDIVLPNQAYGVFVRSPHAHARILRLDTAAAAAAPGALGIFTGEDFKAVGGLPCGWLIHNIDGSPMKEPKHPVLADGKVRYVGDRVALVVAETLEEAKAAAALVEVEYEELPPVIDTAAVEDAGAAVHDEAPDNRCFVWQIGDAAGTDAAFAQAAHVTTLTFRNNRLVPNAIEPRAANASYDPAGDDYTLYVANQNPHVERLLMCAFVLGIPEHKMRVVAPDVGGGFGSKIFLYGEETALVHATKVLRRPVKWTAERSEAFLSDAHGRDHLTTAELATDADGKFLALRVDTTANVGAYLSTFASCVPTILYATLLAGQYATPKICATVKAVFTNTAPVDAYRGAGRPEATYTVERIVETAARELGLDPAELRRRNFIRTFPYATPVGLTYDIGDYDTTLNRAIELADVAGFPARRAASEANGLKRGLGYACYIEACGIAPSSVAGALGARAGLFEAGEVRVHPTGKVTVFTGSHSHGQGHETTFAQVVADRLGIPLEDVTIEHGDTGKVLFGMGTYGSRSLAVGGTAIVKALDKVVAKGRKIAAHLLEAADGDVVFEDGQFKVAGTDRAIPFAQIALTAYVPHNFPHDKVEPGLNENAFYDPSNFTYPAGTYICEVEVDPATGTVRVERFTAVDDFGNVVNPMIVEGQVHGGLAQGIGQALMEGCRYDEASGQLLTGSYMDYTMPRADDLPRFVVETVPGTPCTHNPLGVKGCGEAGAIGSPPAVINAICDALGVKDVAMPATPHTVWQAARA
T1 sequence (I0HW75 1-265): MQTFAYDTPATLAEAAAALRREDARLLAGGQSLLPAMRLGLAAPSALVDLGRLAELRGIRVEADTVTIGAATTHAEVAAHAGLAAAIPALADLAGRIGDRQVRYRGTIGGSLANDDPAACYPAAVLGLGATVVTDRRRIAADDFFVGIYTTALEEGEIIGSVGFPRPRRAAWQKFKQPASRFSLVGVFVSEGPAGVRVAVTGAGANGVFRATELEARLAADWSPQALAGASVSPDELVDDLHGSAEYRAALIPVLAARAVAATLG
T1 sequence (I0HW73 1-155 partner): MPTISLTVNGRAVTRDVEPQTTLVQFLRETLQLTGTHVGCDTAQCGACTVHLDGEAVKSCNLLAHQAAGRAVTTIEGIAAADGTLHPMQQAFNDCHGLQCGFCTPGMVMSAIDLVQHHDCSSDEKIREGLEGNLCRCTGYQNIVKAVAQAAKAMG

[2] = biological target: T2, XDH (xanthine dehydrogenase) of R. gelatinosus (Rubrivivax gelatinosus, UniProt I0HWE5); assay: in-gel NBT reductase activity, native PAGE of soluble fraction; format: biochemical; conditions: NBT 2 mg/mL as electron acceptor; 50 mM Tris-HCl pH 7.6; room temperature
T2 construct: gene xdhB; native complex of about 250 kDa in soluble fraction, native PAGE band; XdhB 82 kDa, XdhA 54 kDa, XdhC 27 kDa; band absent in xdhB mutant; with Xanthine dehydrogenase, FAD and iron-sulfur subunit XdhA; Xanthine dehydrogenase subunit or accessory protein XdhC
T2 sequence (I0HWE5 1-778): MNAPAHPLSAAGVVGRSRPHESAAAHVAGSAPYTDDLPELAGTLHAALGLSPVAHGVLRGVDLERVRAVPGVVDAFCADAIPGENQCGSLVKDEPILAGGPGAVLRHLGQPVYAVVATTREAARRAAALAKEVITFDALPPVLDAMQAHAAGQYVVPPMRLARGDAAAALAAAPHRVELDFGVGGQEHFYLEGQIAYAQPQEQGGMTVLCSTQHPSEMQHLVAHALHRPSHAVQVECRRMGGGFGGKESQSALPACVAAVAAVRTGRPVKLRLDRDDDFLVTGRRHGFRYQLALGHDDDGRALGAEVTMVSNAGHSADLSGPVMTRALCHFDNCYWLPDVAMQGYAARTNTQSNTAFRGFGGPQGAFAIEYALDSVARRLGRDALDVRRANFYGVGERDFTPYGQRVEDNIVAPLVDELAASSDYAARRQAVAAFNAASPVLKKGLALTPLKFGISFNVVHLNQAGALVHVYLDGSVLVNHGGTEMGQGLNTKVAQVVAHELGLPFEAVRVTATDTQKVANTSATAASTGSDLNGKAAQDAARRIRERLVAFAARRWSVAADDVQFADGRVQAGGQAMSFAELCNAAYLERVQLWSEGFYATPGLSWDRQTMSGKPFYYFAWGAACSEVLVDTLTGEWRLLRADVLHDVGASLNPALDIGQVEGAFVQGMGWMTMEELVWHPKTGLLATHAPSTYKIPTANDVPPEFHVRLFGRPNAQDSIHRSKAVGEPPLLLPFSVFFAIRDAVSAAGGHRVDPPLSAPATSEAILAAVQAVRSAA
T2 sequence (I0HWE6 1-493 partner): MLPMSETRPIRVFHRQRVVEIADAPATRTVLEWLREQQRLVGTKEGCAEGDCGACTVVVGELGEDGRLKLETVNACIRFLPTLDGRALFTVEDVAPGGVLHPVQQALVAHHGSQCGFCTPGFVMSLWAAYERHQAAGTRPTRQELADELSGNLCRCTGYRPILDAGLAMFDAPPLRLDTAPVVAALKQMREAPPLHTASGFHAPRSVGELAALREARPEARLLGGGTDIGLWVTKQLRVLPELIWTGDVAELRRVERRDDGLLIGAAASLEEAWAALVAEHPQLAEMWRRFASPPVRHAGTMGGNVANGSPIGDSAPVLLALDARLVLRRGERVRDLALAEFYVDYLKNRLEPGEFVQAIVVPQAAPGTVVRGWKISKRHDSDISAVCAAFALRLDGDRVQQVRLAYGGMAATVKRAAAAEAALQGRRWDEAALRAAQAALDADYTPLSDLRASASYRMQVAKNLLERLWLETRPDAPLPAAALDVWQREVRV

Row | Compound | in-gel NBT reductase activity, native PAGE of soluble fraction, no riboflavin [1] | in-gel NBT reductase activity, native PAGE of soluble fraction [2]
1 | COc1cc(-c2ccc(-n3nc(-c4ccccc4)n[n+]3-c3ccc([N+](=O)[O-])cc3)c(OC)c2)ccc1-n1nc(-c2ccccc2)n[n+]1-c1ccc([N+](=O)[O-])cc1 [nitroblue tetrazolium] | able to reduce NBT to NBT-formazan in the absence of riboflavin | –
2 | O=c1[nH]c(=O)c2[nH]cnc2[nH]1 [xanthine] | – | the addition of xanthine to the native PAGE gel revealed a second active band
